Data: ChEMBL document CHEMBL3885881, “DrugMatrix”

Species: Rattus norvegicus
Experiment: DrugMatrix - Regimen: Daily Repeat
Type: toxicity, organism-based, Sprague-Dawley
Design: regimen Daily Repeat, gender Male, age 6-8 weeks
Details: in vivo, po, route oral GAVAGE, vehicle 100 % WATER; for ABSOLUTE BASOPHIL / ABSOLUTE EOSINOPHIL / ABSOLUTE LYMPHOCYTE / ABSOLUTE MONOCYTE / ABSOLUTE SEGMENTED NEUTROPHIL / BASOPHIL / EOSINOPHIL / ERYTHROCYTE COUNT / HEMATOCRIT / HEMOGLOBIN / LEUKOCYTE COUNT / LYMPHOCYTE / MEAN CORPUSCULAR HEMOGLOBIN / MEAN CORPUSCULAR HEMOGLOBIN CONCENTRATION / MEAN CORPUSCULAR VOLUME / MONOCYTE / NEUTROPHIL / NUCLEATED RED BLOOD CELLS / PLATELET COUNT: tissue Blood; for ALANINE AMINOTRANSFERASE / ALBUMIN / ALKALINE PHOSPHATASE / ASPARTATE AMINOTRANSFERASE / BLOOD UREA NITROGEN / CARBON DIOXIDE / CHLORIDE / CHOLESTEROL / CREATINE PHOSPHOKINASE / CREATININE / GLUCOSE / LACTATE DEHYDROGENASE / LIPASE / PHOSPHORUS / POTASSIUM / SODIUM / TOTAL BILIRUBIN / TOTAL PROTEIN / URIC ACID: tissue Plasma
[1] = 0 mg/kg, 72 h, dose level Control, time 3 day
[2] = 0 mg/kg, 120 h, dose level Control, time 5 day
[3] = 4.5 mg/kg, 72 h, dose level Low, time 3 day

NN [HYDRAZINE]
ABSOLUTE BASOPHIL [1]: 0 CELLS/uL
ABSOLUTE EOSINOPHIL [1]: 20.17 CELLS/uL
ABSOLUTE LYMPHOCYTE [1]: 12371.67 CELLS/uL
ABSOLUTE MONOCYTE [1]: 166 CELLS/uL
ABSOLUTE SEGMENTED NEUTROPHIL [1]: 1292.17 CELLS/uL
BASOPHIL [1]: 0%
EOSINOPHIL [1]: 0.17%
ERYTHROCYTE COUNT [1]: 5.46 x10E6/uL
HEMATOCRIT [1]: 34.38%
HEMOGLOBIN [1]: 13.32 G/DL
LEUKOCYTE COUNT [1]: 13.85 x10E3/uL
LYMPHOCYTE [1]: 88.5%
MEAN CORPUSCULAR HEMOGLOBIN [1]: 24.42 pg
MEAN CORPUSCULAR HEMOGLOBIN CONCENTRATION [1]: 38.7 G/DL
MEAN CORPUSCULAR VOLUME [1]: 63.07 fL
MONOCYTE [1]: 1.17%
NEUTROPHIL [1]: 10.17%
NUCLEATED RED BLOOD CELLS [1]: 0.17 /100WBC
PLATELET COUNT [1]: 1193.5 x10E3/uL
ALANINE AMINOTRANSFERASE [1]: 54.5 u/L
ALBUMIN [1]: 4.02 G/DL
ALKALINE PHOSPHATASE [1]: 346.5 u/L
ASPARTATE AMINOTRANSFERASE [1]: 103.17 u/L
BLOOD UREA NITROGEN [1]: 16.5 mg/dL
CARBON DIOXIDE [1]: 29.83 mmol/L
CHLORIDE [1]: 99.5 MEQ/L
CHOLESTEROL [1]: 72.5 mg/dL
CREATINE PHOSPHOKINASE [1]: 532.5 u/L
CREATININE [1]: 0.18 mg/dL
GLUCOSE [1]: 168.5 mg/dL
LACTATE DEHYDROGENASE [1]: 536.5 u/L
LIPASE [1]: 11.17 u/L
PHOSPHORUS [1]: 11.48 mg/dL
POTASSIUM [1]: 5.95 MEQ/L
SODIUM [1]: 140.5 MEQ/L
TOTAL BILIRUBIN [1]: 0.18 mg/dL
TOTAL PROTEIN [1]: 5.77 G/DL
URIC ACID [1]: 1.42 mg/dL
ABSOLUTE BASOPHIL [2]: 0 CELLS/uL
ABSOLUTE EOSINOPHIL [2]: 22.83 CELLS/uL
ABSOLUTE LYMPHOCYTE [2]: 12202.83 CELLS/uL
ABSOLUTE MONOCYTE [2]: 158 CELLS/uL
ABSOLUTE SEGMENTED NEUTROPHIL [2]: 1283 CELLS/uL
BASOPHIL [2]: 0%
EOSINOPHIL [2]: 0.17%
ERYTHROCYTE COUNT [2]: 5.88 x10E6/uL
HEMATOCRIT [2]: 36.62%
HEMOGLOBIN [2]: 14.07 G/DL
LEUKOCYTE COUNT [2]: 13.67 x10E3/uL
LYMPHOCYTE [2]: 89.5%
MEAN CORPUSCULAR HEMOGLOBIN [2]: 23.95 pg
MEAN CORPUSCULAR HEMOGLOBIN CONCENTRATION [2]: 38.43 G/DL
MEAN CORPUSCULAR VOLUME [2]: 62.28 fL
MONOCYTE [2]: 1.17%
NEUTROPHIL [2]: 9.17%
NUCLEATED RED BLOOD CELLS [2]: 0.17 /100WBC
PLATELET COUNT [2]: 1198 x10E3/uL
ALANINE AMINOTRANSFERASE [2]: 51 u/L
ALBUMIN [2]: 4.3 G/DL
ALKALINE PHOSPHATASE [2]: 343 u/L
ASPARTATE AMINOTRANSFERASE [2]: 89.83 u/L
BLOOD UREA NITROGEN [2]: 17.67 mg/dL
CARBON DIOXIDE [2]: 27.17 mmol/L
CHLORIDE [2]: 98.33 MEQ/L
CHOLESTEROL [2]: 82.5 mg/dL
CREATINE PHOSPHOKINASE [2]: 533.33 u/L
CREATININE [2]: 0.18 mg/dL
GLUCOSE [2]: 152.67 mg/dL
LACTATE DEHYDROGENASE [2]: 220.33 u/L
LIPASE [2]: 11.5 u/L
PHOSPHORUS [2]: 11.25 mg/dL
POTASSIUM [2]: 6.29 MEQ/L
SODIUM [2]: 140.53 MEQ/L
TOTAL BILIRUBIN [2]: 0.22 mg/dL
TOTAL PROTEIN [2]: 6.12 G/DL
URIC ACID [2]: 1.42 mg/dL
ABSOLUTE BASOPHIL [3]: 0 CELLS/uL
ABSOLUTE EOSINOPHIL [3]: 52 CELLS/uL
ABSOLUTE LYMPHOCYTE [3]: 11298 CELLS/uL
ABSOLUTE MONOCYTE [3]: 113 CELLS/uL
ABSOLUTE SEGMENTED NEUTROPHIL [3]: 1470.33 CELLS/uL
BASOPHIL [3]: 0%
EOSINOPHIL [3]: 0.33%
ERYTHROCYTE COUNT [3]: 5.57 x10E6/uL
HEMATOCRIT [3]: 35.73%
HEMOGLOBIN [3]: 13.97 G/DL
LEUKOCYTE COUNT [3]: 12.93 x10E3/uL
LYMPHOCYTE [3]: 87.33%
MEAN CORPUSCULAR HEMOGLOBIN [3]: 25.1 pg
MEAN CORPUSCULAR HEMOGLOBIN CONCENTRATION [3]: 39.1 G/DL
MEAN CORPUSCULAR VOLUME [3]: 64.2 fL
MONOCYTE [3]: 1%
NEUTROPHIL [3]: 11.33%
NUCLEATED RED BLOOD CELLS [3]: 0.33 /100WBC
PLATELET COUNT [3]: 1229.67 x10E3/uL
ALANINE AMINOTRANSFERASE [3]: 44.67 u/L
ALBUMIN [3]: 4.07 G/DL
ALKALINE PHOSPHATASE [3]: 421.33 u/L
ASPARTATE AMINOTRANSFERASE [3]: 89.67 u/L
BLOOD UREA NITROGEN [3]: 13.33 mg/dL
CARBON DIOXIDE [3]: 30.67 mmol/L
CHLORIDE [3]: 99 MEQ/L
CHOLESTEROL [3]: 73.67 mg/dL
CREATINE PHOSPHOKINASE [3]: 298.33 u/L
CREATININE [3]: 0.17 mg/dL
GLUCOSE [3]: 155 mg/dL
LACTATE DEHYDROGENASE [3]: 178.33 u/L
LIPASE [3]: 10.67 u/L
PHOSPHORUS [3]: 11.43 mg/dL
POTASSIUM [3]: 6.44 MEQ/L
SODIUM [3]: 142.33 MEQ/L
TOTAL BILIRUBIN [3]: 0.2 mg/dL
TOTAL PROTEIN [3]: 6.07 G/DL
URIC ACID [3]: 1.73 mg/dL
